Measured values from PMC11738990, “A small-molecule TNIK inhibitor targets fibrosis in preclinical and clinical models” (Nature Biotechnology, 2024).
“And” between values parts separate entries of the source, which are not always exact repeats. Identical values can stand only once.

How the values were obtained:
C57BL/6 mice [1] = experiment: Bleomycin-induced lung fibrosis model; assay type: in vivo, mouse; conditions: individual animals
Experimental: (§1) Mice received bleomycin on day 1 at a dose of 0.66 mg per kg (equivalent to 1 U per kg), in a volume of 50 μl by intratracheal administration, or received saline (sham group). On day 7, dosing with the corresponding compounds was started. The vehicle group (group 1) was treated with 0.5% methylcellulose BID. […] On days 5 and 21, lung function measurement was performed. On day 28, all animals were killed, and blood and tissue samples were collected along with BALF.
(§2) Lung function was measured according to the HDB standard protocol. Expiratory time, relaxation time, peak expiratory flow and peak inspiratory flow were collected and used to calculate Penh data.
(§3) Mice were first anesthetized with Zoletil–xylazine (50 mpk and 10 mpk, i.p.). Next, a 1.5–2-cm longitudinal incision was made on the ventral side of the neck to expose the trachea by blunt dissection, and curved forceps were placed underneath the trachea. A 10–12-cm piece of suture was then threaded underneath the trachea using forceps. The ends of the suture were then pulled cranially to ‘stretch’ the trachea toward the surgeon. A 20-G needle was then used to poke a hole in the trachea as close to the larynx as possible. A 22-G blunt stainless steel needle connected to PE tubing was placed in the hole and inserted approximately 5–8 mm into the trachea. The cannula was secured in the trachea by tying the suture around it with an overhand knot. A 1-ml syringe containing 0.4 ml saline was gently pushed forward and backward three times to recover BALF fluid. BALF was transferred into empty tubes and stored on ice. This process was repeated twice with 0.3 ml saline for a total volume of 1 ml.
(§4) Total cell numbers were counted with a standard hemocytometer by mixing 20 μl BALF with 20 μl trypan blue. Cytospins were prepared by cytocentrifugation using Cytospins at 106g for 5 min, and then smears of BALF cells were stained with Diff-Quick stain. Cell differentiation was performed by counting at least 400 cells using standard hemocytologic criteria to classify them as alveolar macrophages or monocytes, neutrophils, eosinophils or lymphocytes. The rest of the BALF fluid was centrifuged, and supernatants were collected and stored at −80 °C for cytokine, chemokine and total protein analysis.
(§5) From the collected BALF, concentrations of cytokines were measured from mice in groups 2–7 killed on day 28. Mouse BALF cytokines and chemokines were measured using the ELISA Analysis Kit (Sinobest Bio). Mouse BALF soluble collagen was measured using the Soluble Collagen kit (Biocolor). Mouse lung hydroxyproline content was measured using the Hydroxyproline Assay Kit (Njjcbio).
Left lung lobes were removed from each mouse and fixed in 10% NBF solution, embedded in paraffin and processed to obtain 4-μm sections for staining with H&E. H&E-stained slides were scanned using an Aperio ScanScope Model CS2 (Leica) at ×200 magnification. Images were then opened in the HALO Plus 5 workstation (version 2.3, Indica Labs) program. Using the pen annotation tool, the whole-lung section was selected as an annotation layer. The area of vessels was defined as background using the exclusion drawing tool. The total inflammation area was quantified by selecting the dark blue inflammation cells using the pen annotation tool manually. The percentage of H&E staining (inflammation area/total area of the lung) in the selected annotation was then calculated using the program.
Masson’s trichrome staining was conducted using a ready-to-use kit (Trichrome Stain (Masson) Kit, HT15, Sigma-Aldrich) as described by the manufacturer.
Lung sections were cut at a thickness of 4 μm, dried in an oven for 1 h and stained with M&T using our standard protocol.

C57BL/6 mice [2] = experiment: Bleomycin-induced lung fibrosis model, combination with pirfenidone; assay type: in vivo, mouse; conditions: PFD 60 BID
Experimental: as §1, §2
Lung sections were cut at a thickness of 4 μm, dried in an oven for 1 h and stained with M&T using our standard protocol. Briefly, sections were stained with Weigert’s iron hematoxylin working solution for 10 min, stained in Biebrich scarlet–acid fuchsin solution for 10 min, differentiated in phosphomolybdic–phosphotungstic acid solution for 5 min or until the collagen was not red, transferred to aniline blue solution, stained for 1 min and then dedifferentiated in 1% acetic acid solution. Next, sections were dehydrated and coverslipped for subsequent image analysis. For image analysis of collagen deposition, Masson’s trichrome-stained slides were scanned by using Aperio ScanScope Model CS2 (Leica) at ×200 magnification. Images were then opened with HALO. Using the pen tool, the whole left lung section was selected as an annotation layer. The area occupied by blue collagen fibers was measured using the pen tool. The percentage of fibrosis (positive areas) in the selected annotation was then calculated with the program. Fibrosis was expressed as a percentage per lung section.
Sections (4 μm thick) were placed on slides, and, after overnight drying, paraffin was removed with xylene. Next, sections were placed in a graded ethanol series and immersed in distilled water. After heat-induced citrate antigen (pH 6.0) unmasking, sections were immersed in 3% hydrogen peroxide solution for 5 min. […] Next, secondary antibodies conjugated to HRP were added. For image analysis of fibrosis, stained sections were used and scanned with the Aperio CS2 Scanner machine. Images were then opened with HALO. Using the pen tool, the whole left lung section was selected as an annotation layer. The bronchus was excluded in the annotation layer. The area occupied by collagen fibers was measured using the ‘Area Quantification v2.1.3’ module. The percentage of positive areas in the selected annotation was then calculated using the program.

Sprague Dawley rats = experiment: Bleomycin-induced lung fibrosis model, inhalation administration; assay type: in vivo, rat; conditions: Pirfenidone 350 mg/kg; individual animals, Fig 4
Experimental: On day 1 of the study, bleomycin hydrochloride was administered to 8–9-week-old Sprague Dawley rats at a final concentration of 1.5 mg ml^−1 in sodium chloride solution (dosed volume at 1.0 ml per kg) by intratracheal atomization (once in the morning and once in the afternoon) to build the pulmonary fibrosis model.
A German PARI compression atomizer (PARI TurboBOY) was set at an aerosol flow rate of 9–10 l min^−1. […] The dilution flow of aerosol was set at 0 l min^−1, and the pumping-out flow from the chamber was set at 6 l min^−1. The fluid rate was set at 0.5 ml min^−1 for test article replenishment. Before nebulization, aerosol-generation conditions were validated three times.
And these parameters were recorded in real time during the experiment.
For concentration assessment, a glass fiber filter membrane (φ = 37 mm) was used to measure aerosol concentrations during drug administration from approximately day 8 to day 28. Sampling was taken at 5 min (±1 min) after drug administration from a random exposure port. […] Aerosol particle size parameters were calculated with the system software: median mass aerodynamic diameter (MMAD), geometric standard deviation, fine particle fraction (percentage of fine particles with MMAD < 5 μm), etc.
On day 29 and before euthanasia, animals were anesthetized with chloral hydrate (90 mg ml^−1, 5 ml per kg, i.p.). Necks were cut longitudinally at the middle to isolate trachea, and a catheter was intubated into the trachea toward the tail direction and fixed with a suture thread. The anesthetized animals were placed into the plethysmography chamber, to which the airway was connected. The AniRes2005 animal lung function-analysis system was used to assess parameters including FVC, airway resistance and pulmonary compliance. The ventilator respiration rate was set to 65 beats per minute; the respiration ratio was set to 20:10; the negative pressure controller was set to 30 cm H2O. FVC detection was set to pressure-control mode, while pressure was set to 30 cm H2O. The startup mode was selected to automatically detect at the end of breath, and the ‘Start’ button was clicked to passively inhale and then turned to exhale after reaching the set pressure value. Next, the ‘Stop’ button was clicked to complete an FVC detection. Each animal was evaluated for FVC at least five times. The final result was the mean value after the maximum and minimum data were excluded for analysis.

[3] = tested on: cyclin-dependent kinase (CDK)2; conditions: 0.1 μM; cited from earlier work
C57BL/6 mice [4] = experiment: LPS-induced acute lung injury model; assay type: in vivo, mouse; conditions: G3 Dex 10mpk BID; individual animals, Fig 3E-F; listed as Dex;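 note: bronchoalveolar lavage fluid sampled one day after intratracheal LPS challenge, cytokines measured by ELISA in supernatant, lymphocytes counted on Diff-Quick stained cytospin smears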
Experimental: One day before the first experimental day, animals were grouped. All mice were anesthetized with Zoletil–xylazine (50 mpk and 10 mpk, i.p.). At 0 h, mice received LPS at a dose of 50 μl as 50 μg per mouse (groups 2–5, n = 8 per group) or 50 μl saline (group 1, n = 8 per group) by intratracheal administration. […] In the dexamethasone group (group 5), animals were treated with dexamethasone both 2 h before and 4 h after the LPS challenge. Twenty-four hours after the LPS challenge, animals were euthanized, and BALF samples were collected.
as §3, §4, §5

C57BL/6 mice [5] = experiment: Unilateral ureteral obstruction (UUO) kidney fibrosis model; conditions: SB525334 100 mg/kg QD, individual animals, Fig 5C-D;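 note: mice had the left ureter ligated on day 0, received treatment from day 0 through day 14 and were killed on day 14 for kidney analysis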
Experimental: The surgery took place on two separate days. Mice were divided into two slots based on their body weight before the day of the surgery. On day 0 (day of surgery), UUO surgery was performed after administration of three types of mixed anesthetic agents (medetomidine, midazolam, butorphanol). Mice were shaved at the incision site, the abdomen was cut open, and the left ureter was exteriorized and ligated with 4-0 silk sutures at two points. Finally, the peritoneum and the skin were closed with sutures.
Treatments were applied from day 0 to day 14. And animals were killed on day 14, and blood and tissue samples were collected.
Frozen kidney samples were processed by an alkaline acid hydrolysis method as follows. […] Next, AC buffer (2.2 M acetic acid and 0.48 M citric acid, 400 μl) was added to the samples, followed by centrifugation to collect the supernatant. […] The samples were then mixed with Ehrlich’s solution (400 μl) and heated at 65 °C for 20 min to develop color. After samples were cooled on ice and centrifuged to remove precipitates, the optical density of each supernatant was measured at 560 nm. Hydroxyproline concentrations were calculated from the hydroxyproline standard curve. Kidney hydroxyproline contents were expressed as μg per mg protein, and the amount of protein was determined using the BCA Protein Assay Kit (Thermo Fisher Scientific).
At the end of the UUO study, the left kidney was fixed in Bouin’s solution and embedded in paraffin. Kidney sections were stained using picro-Sirius red solution (Waldeck). To quantify the interstitial fibrosis area, brightfield images in the corticomedullary region were captured using a digital camera (DFC295) at 200-fold magnification, and the positive areas in five fields per section were measured using ImageJ software (National Institute of Health).
Paraffin sections were deparaffinized and hydrophilized with xylene, 100–70% alcohol series and RO water, and then circles were drawn around the kidney sections. […] After washing with PBS, kidney sections were treated with PBS with Tween-20 (PBST), followed by incubation with Block Ace (DS Pharma Biomedical) at room temperature for 10 min. The sections were incubated with the primary antibody (anti-collagen I) at 4 °C overnight. After washing with PBS, kidney sections were treated with PBST, followed by incubation with secondary antibody at room temperature for 30 min. After washing with PBS, kidney sections were fixed with 1% glutaraldehyde solution at room temperature for 1 min. After washing with RO water, kidney sections were treated with PBST and then colored using a chromogenic substrate (Simple Stain DAB, Nichirei Bioscience). After washing with RO water, kidney sections were immersed in an eightfold-diluted hematoxylin solution for 1 min and washed with RO water immediately. […] For scoring of IHC analyses, brightfield images were captured using a digital camera (DFC295) at 200-fold magnification, and the score in one field per section was determined.

[6] = G5 Nintedanib 60mpk QD, Fig 3B-C

In the case of `COC(=O)c1ccc2c(c1)NC(=O)/C2=C(\Nc1ccc(N(C)C(=O)CN2CCN(C)CC2)cc1)c1ccccc1` [Nintedanib, reference compound], the “HE staining (inflammation area)” value (C57BL/6 mice [1]; 60mpk QD) is reported as 0.45 and 0.15 and 0.63 and 0.09 and 1.34 and 0.26 and 0.72 and 0.83 and 1.48 and 0.9, the “IL-1beta in BALF” value (C57BL/6 mice [1]; 60mpk QD) is reported as 168.67 and 169.31 and 175.04 and 171.22 and 152.11 and 187.14 and 147.65 and 164.21 and the “IL-6 in BALF” value (C57BL/6 mice [1]; 60mpk QD) is reported as 147.17 and 136.31 and 119.43 and 143.55 and 137.52 and 155.01 and 125.46 and 138.12 and 158.63. The “monocytes, cell count in BALF” value (C57BL/6 mice [1]; 60mpk QD) was 87000 and 128700 and 121600 and 174600 and 58800 and 161100 and 39800 and 37000 and 99000 and 75600, the “neutrophils, cell count in BALF” value (C57BL/6 mice [1]; 60mpk QD) was 0 and the “Lung function (Penh)” value (C57BL/6 mice [1]; [6]) was 0.5478 and 2.603 and 0.6904 and 2.472 and 0.7934 and 0.9276 and 0.6395 and 0.7208 and 1.0675 and 0.6757 and 1.195 and 2.42 and 0.41. For the same molecule, the “Masson Trichrome's staining” value (C57BL/6 mice [1]; [6]) was 0.55 and 0.4 and 0.78 and 0.03 and 1.61 and 0.54 and 0.87 and 0.56 and 1.52 and 0.39, the “Modified Ashcroft Score” value (C57BL/6 mice [1]; [6]) was 3.5 and 2.5 and 1.75 and 1.25 and 2.25 and 3.25 and 0.5 and the “collagen I” value (C57BL/6 mice [1]; [6]) was 2.73 and 0.02 and 0.37 and 0.05 and 0.16 and 0.9 and 0.94 and 0.03 and 0.07. The α-SMA (C57BL/6 mice [1]; [6]) was 0.19 and 0.04 and 0.06 and 0.17 and 0.42 and 0.08 and 0.45 and 0.15 and 0.22 and 0.14.

With `Cc1ccc(=O)n(-c2ccccc2)c1` [PFD, reference compound] the “Modified Ashcroft Score” value (C57BL/6 mice [2]) was 4.5 and 5.25 and 5 and 4.75 and 5.5 and 4.25, the Cdyn (Sprague Dawley rats) was 0.3225 mL/cmH2O and 0.3123 mL/cmH2O and 0.3091 mL/cmH2O and 0.2795 mL/cmH2O and 0.2995 mL/cmH2O and 0.311 mL/cmH2O and 0.2781 mL/cmH2O and 0.3041 mL/cmH2O and 0.3215 mL/cmH2O and 0.2768 mL/cmH2O and 0.3388 mL/cmH2O and 0.3313 mL/cmH2O and the FVC (Sprague Dawley rats) was 11.834 and 11.621 and 10.998 and 9.152 and 10.235 and 10.576 and 10.334 and 10.683 and 12.105 and 9.791 and 11.908 and 11.529. The “HE staining for inflammatory infiltration” value (Sprague Dawley rats) was 7.178 and 19.4033 and 79.9063 and 22.6394 and 11.901 and 21.4024 and 18.4629 and 10.7655 and 14.7132 and 7.539 and 10.0121 and 11.9271, the “MT staining for fibrosis” value (Sprague Dawley rats) was 10.0525 and 23.681 and 70.2292 and 22.9771 and 14.4065 and 16.7608 and 19.0061 and 11.0741 and 14.7041 and 7.51 and 11.2668 and 15.3486 and the “Modified Ashcroft Score” value (Sprague Dawley rats) was 2.42 and 3.08 and 3.92 and 2.83 and 3.17 and 2.75 and 2 and 2.08 and 2.33 and 2.5. The RL (Sprague Dawley rats) was 0.1938 cmH2O and 0.2018 cmH2O and 0.2011 cmH2O and 0.2233 cmH2O and 0.2084 cmH2O and 0.2023 cmH2O and 0.2267 cmH2O and 0.2069 cmH2O and 0.196 cmH2O and 0.2278 cmH2O and 0.184 cmH2O and 0.1887 cmH2O.

For `OC1CCC(Oc2cccc3cnc(Nc4ccc5nc[nH]c5c4)nc23)CC1` (stereo not drawn) [NCB-0846], the inhibition [3] is listed as > 80%.

In the case of `C[C@@H]1C[C@H]2[C@@H]3CCC4=CC(=O)C=C[C@]4(C)[C@@]3(F)[C@@H](O)C[C@]2(C)[C@@]1(O)C(=O)CO` [Dexamethasone, reference compound], the IL-1β (C57BL/6 mice [4]) is reported as 90.1547 and 104.645 and 85.96 and 83.2907 and 79.4774 and 99.688 and 85.1973 and 77.1894, the IL-4 (C57BL/6 mice [4]) is reported as 38.428 and 35.2518 and 35.7056 and 41.1504 and 38.1255 and 36.613 and 38.8817 and 44.3266 and the IL-6 (C57BL/6 mice [4]) is reported as 27.9 and 24.66 and 28.93 and 26.28 and 30.56 and 33.5 and 31.73 and 30.41. The IL-7 (C57BL/6 mice [4]) was 25.06 and 25.43 and 30.03 and 28.19 and 29.85 and 32.24 and 34.63 and 29.29, the Lymphocytes (C57BL/6 mice [4]) was 11000 and 9300 and 5750 and 9600 and 6400 and 32400 and 4950 and 10750 and the TNF-alpha (C57BL/6 mice [4]) was 362.89 and 452.57 and 397.89 and 371.64 and 437.26 and 448.2 and 351.95 and 301.64.

For `Cc1cccc(-c2[nH]c(C(C)(C)C)nc2-c2ccc3nccnc3c2)n1` [SB525334, reference compound], the “Collagen Type 1 score” value (C57BL/6 mice [5]) was 1, the “Fibrosis area (sirius red positive area)” value (C57BL/6 mice [5]; 100 mg/kg) was 0.79 and 1.13 and 0.97 and 0.36 and 0.56 and 0.41 and 0.76 and 0.48 and the Kidney hydroxyproline (C57BL/6 mice [5]; 100 mg/kg) was 3.88 and 4.04 and 4.13 and 2.51 and 3.1 and 4.54 and 4.91.
